Measured values reported in patent US7045532B2 (Millennium Pharmaceuticals, Inc., priority 1999, dated 2006).
Where two headings read alike, the source gives them in different places.

Molecular target: T1, ACE-2 (Homo sapiens, UniProt Q9BYF1)
T1 construct: a stop codon inserted after the serine immediately preceding the transmembrane domain; made in house; host or cells: CHO K1 cells (transient transfection, purified from conditioned medium)
Assay: ACE-2 Competitive Substrate Assay (ACS Assay)
Type: biochemical

[1] = Ki class, compounds tested in 5% DMSO, 12 compound concentrations, Ki=Kiapp/(1+[S]/Km), read-out: Human ACE-2 Activity
[2] = Table 3, very good ACE-2 inhibiting compounds, species not given, read-out: ACE-2 Activity, Ki
[3] = Ki class, compounds tested in 5% DMSO, 12 concentrations, read-out: Human ACE-2 Activity

T1 sequence (Q9BYF1 18-740 limits assumed): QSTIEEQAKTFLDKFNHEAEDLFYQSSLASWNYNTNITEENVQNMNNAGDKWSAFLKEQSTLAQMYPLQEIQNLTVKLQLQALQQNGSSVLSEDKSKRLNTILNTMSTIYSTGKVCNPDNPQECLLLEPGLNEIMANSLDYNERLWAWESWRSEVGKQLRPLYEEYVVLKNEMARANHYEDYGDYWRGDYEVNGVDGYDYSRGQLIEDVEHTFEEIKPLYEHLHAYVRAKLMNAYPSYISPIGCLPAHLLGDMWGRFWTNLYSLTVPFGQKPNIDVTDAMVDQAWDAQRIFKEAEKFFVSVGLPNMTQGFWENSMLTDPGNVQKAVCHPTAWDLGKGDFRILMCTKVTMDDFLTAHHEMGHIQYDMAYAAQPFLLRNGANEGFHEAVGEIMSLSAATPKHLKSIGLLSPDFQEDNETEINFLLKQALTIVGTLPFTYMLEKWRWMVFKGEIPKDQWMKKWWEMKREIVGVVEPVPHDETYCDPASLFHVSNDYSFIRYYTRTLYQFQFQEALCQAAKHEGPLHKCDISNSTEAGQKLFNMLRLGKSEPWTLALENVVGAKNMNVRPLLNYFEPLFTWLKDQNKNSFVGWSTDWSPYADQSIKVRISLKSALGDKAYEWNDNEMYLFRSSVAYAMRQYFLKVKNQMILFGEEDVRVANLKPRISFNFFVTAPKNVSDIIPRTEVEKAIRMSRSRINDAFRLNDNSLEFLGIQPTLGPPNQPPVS

SMILES | Ki [1] | other results
CC(C)CC(N[C@@H](Cc1cncn1Cc1c(Cl)cccc1Cl)C(=O)O)C(=O)O (single isomer, unassigned) [JD, 2-[1-Carboxy-2-[3-(2,6-dichloro-benzyl)-3H-imidazol-4-yl]-ethylamino]4-methyl-pentanoic acid] | > 500 nM | –
CC(C)CC(N[C@@H](Cc1cncn1Cc1ccc2c(c1)OCO2)C(=O)O)C(=O)O (single isomer, unassigned) [JF] | > 500 nM | –
CC(C)CC(N[C@@H](Cc1cncn1CC1CCCCC1)C(=O)O)C(=O)O (single isomer, unassigned) [JG, 2-[1-Carboxy-2-(3-cyclohexylmethyl-3H-imidazol-4-yl)-ethylamino]4-methyl-pentanoic acid] | > 500 nM | –
CC(C)CC(N[C@@H](Cc1cncn1CCC1CCCCC1)C(=O)O)C(=O)O (single isomer, unassigned) [JJ, 2-[1-Carboxy-2-[3-(2-cyclohexyl-ethyl)-3H-imidazol-4-yl]-ethylamino]4-methyl-pentanoic acid] | > 500 nM | –
CC(C)CC(N[C@@H](Cc1cncn1CCc1ccccc1)C(=O)O)C(=O)O (single isomer, unassigned) [JL, 2-[1-Carboxy-2-[3-phenethyl-3H-imidazol-4-yl)-ethylamino]-4-methyl-pentanoic acid] | > 500 nM | –
CCC(CC)Cn1cncc1C[C@H](NC(CC(C)C)C(=O)O)C(=O)O (single isomer, unassigned) [JM, 2-[1-Carboxy-2-[3-(2-ethylbutyl)-3H-imidazol-4-yl]-ethylamino]-4-methyl-pentanoic acid] | < 100 nM | –
CCC(CC)Cn1cncc1C[C@H](NC(CC(C)C)C(=O)O)C(=O)O (single isomer, unassigned) [JN, 2-[1-Carboxy-2-[3-(2-ethylbutyl)-3H-imidazol-4-yl]-ethylamino]-4-methyl-pentanoic acid] | > 500 nM | –
CC(C)CC(N[C@@H](Cc1cncn1Cc1cccc(F)c1)C(=O)O)C(=O)O (single isomer, unassigned) [JR, 2-[1-Carboxy-2-[3-(3-fluoro-benzyl)-3H-imidazol-4-yl]-ethylamino]4-methyl-pentanoic acid] | 100 to 500 nM | –
CC(C)CC(N[C@@H](Cc1csc(Cc2ccccc2)n1)C(=O)O)C(=O)O (single isomer, unassigned) [JZ, 2-[2-(2-Benzyl-thiazol-4-yl)-1-carboxy-ethylamino]-4-methyl-pentanoic acid] | > 500 nM | –
Cc1nc(C[C@H](NC(CC(C)C)C(=O)O)C(=O)O)c(Cc2ccccc2)s1 (single isomer, unassigned) [KB, 2-[2-(5-Benzyl-2-methyl-thiazol-4-yl)-1-carboxy-ethylamino]-4-methyl-pentanoic acid] | 100 to 500 nM | –
Cc1nc(C[C@H](NC(CC(C)C)C(=O)O)C(=O)O)c(Cc2ccccc2)s1 (single isomer, unassigned) [KC, 2-[2-(5-Benzyl-2-methyl-thiazol-4-yl)-1-carboxy-ethylamino]-4-methyl-pentanoic acid] | > 500 nM | –
CC(C)C[C@H](N[C@@H](Cc1cncn1Cc1cc(Cl)cc(Cl)c1)C(=O)OCc1ccccc1)C(=O)O (single isomer, unassigned) [LC, 2-(1-Benzyloxycarbonyl-2-[3-(3,5-dichloro-benzyl)-3H-imidazol-4-yl]-ethylamino]-4-methyl-pentanoic acid] | < 100 nM | Ki [2]: < 50 nM
CC(C)CC(N[C@@H](Cc1csc(-c2ccccc2)n1)C(=O)O)C(=O)O (stereo in doubt) [GQ, 2-[1-Carboxy-2-[2-phenyl-thiazol-4-yl)-ethylamino]-4-methyl-pentanoic acid] | – | Ki [3]: > 500 nM
Cc1cc(C[C@H](NC(CC(C)C)C(=O)O)C(=O)O)no1 (stereo in doubt) [IM, 2-[1-Carboxy-2-(5-methyl-isoxazol-3-yl)-ethylamino]-4-methyl-pentanoic acid] | > 500 nM | –
CC(C)C[C@H](N[C@@H](CC1COC(=O)N1Cc1cc(Cl)cc(Cl)c1)C(=O)O)C(=O)O (stereo in doubt) [NE, (S,S,S)-2-{1-Carboxy-2-[3-(3,5-dichloro-benzyl)-2-oxo-oxazolidin-4-yl]-ethylamino}-4-methyl-pentanoic acid] | < 100 nM | Ki [2]: 50 to 100 nM
CC(C)CC(N[C@@H](C[C@H]1COC(=O)N1Cc1cc(Cl)cc(Cl)c1)C(=O)O)C(=O)O (stereo in doubt) [NN, (R,S,S)-2-{1-Carboxy-2-[3-(3,5-dichloro-benzyl)-2-oxo-oxazolidin-4-yl]-ethylamino}-4-methyl-pentanoic acid] | 100 to 500 nM | –
CC(C)C[C@H](N[C@@H](C/C=C\c1cc(Cl)cc(Cl)c1)C(=O)O)C(=O)O (stereo in doubt) [PV, 2-(1-Carboxy-3-methyl-butylamino)-5-(3,5-dichloro-phenyl)-pent-4-enoic acid] | – | Ki (Ki class per key, compounds tested in 5% DMSO, 12 compound concentrations, 25° C., Ki=Kiapp/(1+[S]/Km), read-out: Human ACE-2 Activity): < 100 nM
O=C(O)[C@@H]1C[C@@H](C(=O)O)N1 [A, Azetidine-2,4-dicarboxylic acid] | – | Ki [3]: > 500 nM
CCOC(=O)C(CCc1ccccc1)N[C@@H](CC(C)C)C(=O)O (stereo partly shown) [B, 2-(1-Ethoxycarbonyl-3-phenyl-propylamino)-4-methyl-pentanoicacid] | – | Ki [3]: > 500 nM
CC(C)CC(N[C@@H](CN(Cc1ccccc1)c1ccccc1)C(=O)O)C(=O)O (stereo partly shown) [GT, 2-[2-(Benzyl-phenyl-amino)-1-carboxy-ethylamino]-4-methyl-pentanoic acid] | – | Ki [3]: > 500 nM

SMILES | Ki [1] | other results
O=C(O)[C@@H]1CCC[C@H](C(=O)O)N1 [H, Pipendine-2,6-dicarboxylic acid] | – | Ki [3]: > 500 nM
C[C@@H](N[C@@H](CCCNC(=N)N)C(=O)O)C(=O)O [I, 2-(1-Carboxy-ethylamino)-5-guanidino-pentanoic acid] | – | Ki [3]: > 500 nM
CC(C)CC(N[C@@H](Cc1cn(Cc2cccc(F)c2F)cn1)C(=O)O)C(=O)O (stereo partly shown) [IW, 2-[1-Carboxy-2-[1-(2,3-difluoro-benzyl)-1H-imidazol-4-yl]-ethylamino]4-methyl-pentanoic acid] | > 500 nM | –
NCCCC[C@@H](C(=O)O)N(CC(=O)O)CC(=O)O [K, 6-Amino-2-(bis-carboxymethyl-amino)-hexanoic acid] | – | Ki [3]: > 500 nM
CC(C)C[C@H](N[C@@H](Cc1csc(-c2cccc(C(F)(F)F)c2)n1)C(=O)O)C(=O)O [KD, (S,S)-2-{1-Carboxy-2-[2-(3-trifluoromethyl-phenyl)-thiazol-4-yl-]-ethylamino}-4-methyl-pentanoic acid] | > 500 nM | –
CC(C)C[C@H](N[C@@H](CCNC(=O)c1ccc2ccccc2c1)C(=O)O)C(=O)O [KE] | > 500 nM | –
CC(C)C[C@H](N[C@@H](CCNS(=O)(=O)c1ccc(-c2ccccc2)cc1)C(=O)O)C(=O)O [KF, 2-[3-(Biphenyl-4-sulfonylamino)-1-carboxy-propylamino]-4-methyl-pentanoic acid] | 100 to 500 nM | –
CC(C)C[C@H](N[C@@H](Cc1csc(-c2ccc(Cl)cc2Cl)n1)C(=O)O)C(=O)O [KG, (S,S)-2-{1-Carboxy-2-[2-(2,4-dichloro-phenyl)-thiazol-4-yl-]-ethylamino}-4-methyl-pentanoic acid] | < 100 nM | Ki [2]: 50 to 100 nM
CC(C)C[C@H](N[C@@H](Cc1csc(-c2ccc3c(c2)CCO3)n1)C(=O)O)C(=O)O [KI, (S,S)-2-{1-Carboxy-2-[2(2,3-dihydro-benzofaran-5-yl]-thiazol-4-yl]-ethylamino}-4-methyl pentanoic acid] | < 100 nM | Ki [2]: 50 to 100 nM
CC(C)C[C@H](N[C@@H](Cc1csc(-c2ccc(F)c(Cl)c2)n1)C(=O)O)C(=O)O [KJ, (S,S)-2-{1-Carboxy-2-[2-(3-chloro-4-fluoro-phenyl)-thiazol-4-yl-]-ethylamino}-4-methyl-pentanoic acid] | < 100 nM | Ki [2]: 50 to 100 nM
Cc1ccc(-c2nc(C[C@H](N[C@@H](CC(C)C)C(=O)O)C(=O)O)cs2)cc1 [KK, (S,S)-2-[1-Carboxy-2-(2-p-tolyl-thiazol-4-yl)-ethylamino]-4-methyl-pentanoic acid] | < 100 nM | Ki [2]: < 50 nM
CC(C)C[C@H](N[C@@H](Cc1cc(-c2ccccc2)on1)C(=O)O)C(=O)O [KL, 2-[1-Carboxy-2-(5-phenyl-isoxazol-3-yl)-ethylamino]-4-methyl-pentanoic acid] | 100 to 500 nM | –
CC(C)C[C@H](NC(=O)[C@@H](S)Cc1ccccc1)C(=O)O [KM, 2-(2-Mercapto-3-phenyl-propionylamino)-4-methyl-pentanoic acid] | > 500 nM | –
CC(C)C[C@H](N[C@@H](CCNS(=O)(=O)c1ccc(-c2ccc(Cl)cc2)cc1)C(=O)O)C(=O)O [KN, (S,S)-2-[1-Carboxy-3-(4′-chloro-biphenyl-4-sulfonylamino)-propylamino]-4-methyl-pentanoic acid] | > 500 nM | –
COc1cccc(C(=O)NCC[C@H](N[C@@H](CC(C)C)C(=O)O)C(=O)O)c1 [KO, 2-[1-Carboxy-3-(3-methoxy-benzoylamino)-propylamino]-4-methyl-pentanoic acid] | > 500 nM | –
CC(C)C[C@H](N[C@@H](CCNC(=O)c1cccc(Cl)c1)C(=O)O)C(=O)O [KP, (S,S)-2-[1-Carboxy-3-(3-chloro-benzoylamino)-propylamino]-4-methyl-pentanoic acid] | > 500 nM | –
CC(C)C[C@H](N[C@@H](Cc1ccc(OCc2ccccc2)cc1)C(=O)O)C(=O)O [KQ, S,S-2-[2-(4-Benzyloxy-phenyl)-1-carboxy-ethylamino-]4-methyl-pentanoic acid] | 100 to 500 nM | –
CC(C)C[C@H](N[C@@H](Cc1ccc(OCC2CCCCC2)cc1)C(=O)O)C(=O)O [KR, S,S-2-[1-Carboxy-2-(4-cyclohexylmethoxy-phenyl)-ethylamino]-4-methyl pentanoic acid] | 100 to 500 nM | –
CC(C)C[C@H](N[C@@H](Cc1ccc(OCc2cc(Cl)cc(Cl)c2)cc1)C(=O)O)C(=O)O [KS, 2-[1-Carboxy-2-[4-(3,5-dichloro-benzyloxy)-phenyl]-ethylamino)-4-methyl-pentanoic acid] | < 100 nM | Ki [2]: < 50 nM
